From patent US12162836B2, “N-acyl-{4-[(4-aryl-phenyl)sulfonylmethyl]piperidine} compounds and their therapeutic use” (Modern Biosciences Limited, priority 2019, dated 2024) come the findings set out here.

In brackets after ≈: the same amount, converted by molar mass. Some results are limits rather than exact numbers.

Series [1] in a line: Aqueous solubility in FaSSIF. Type of series: physicochemical. The settings on record: for solubility at 16 h: kinetic from dmso stock.
Another series concerns the target CYP1A2 (Homo sapiens (Human), UniProt P05177). Kind of series: Human Cytochrome P450 Inhibition Assay (Bactosomes). Type of series: in vitro ADME. Particulars: recombinant enzyme. The method, then: (§1) The ability of test compounds to inhibit five of the most relevant cytochrome P450 enzymes was measured by determination of the activity of cytochrome P450 enzymes in recombinant cytochrome preparations, called Bactosomes (Cypex Ltd, Dundee, Scotland UK DD2 1 NH), in the presence of a specific probe substrate. Bactosomes are a highly efficient and cost-effective source of recombinant CYP450s which have a higher specific activity of enzyme compared to other sources, such as liver microsomes. […] The following CYP450 isoforms were assayed: CYP1A2, CYP2C9, CYP2C19, CYP2D6 and CYP3A4. The study of CYP450 inhibition potential in Bactosomes is accepted as a valuable model permitting rapid prediction of potential drug-drug interactions in vivo (see, e.g., Weaver et al., 2003).
(§2) Bactosomes were obtained from a commercial source (Cypex, Scotland, UK). Test compounds were incubated with Bactosomes at 6 concentrations. Samples were incubated for 10 minutes, after which the reaction was stopped and the samples analysed by LC-MS/MS Multiple Reaction Monitoring (MRM) for the presence/amount of substrate probe.
(§3) CYP450 enzymes (final protein 75 pmol/mL for CYP1A2; 12.5 pmol/mL for CYP2C19; and 25 pmol/mL for CYP2C9, 2D6 and 3A4), 0.1 M phosphate buffer pH 7.4, probe and test compound (final concentration 50, 15.8, 5, 1.58, 0.5 and 0.158 μM; diluted from 10 mM stock solution to give a final DMSO concentration of 1%) were pre-incubated at 37° C. for 5 minutes. The reaction was initiated by the addition of 20 μL of 10 mM NADPH in phosphate buffer. The final incubation volume was 200 μL. The following control inhibitors were used for each CYP450 inhibition assay: CYP1A2: α-naphthoflavone; CYP2C9: sulfaphenazole; CYP2C19: tranylcypromine; CYP2D6: quinidine; CYP3A4: ketoconazole.
(§4) Each compound was incubated for 10 minutes at 37° C. The reactions were stopped by the addition of methanol (final composition 1:1, aqueous: methanol). The incubation plates were shaken, chilled at […] for 2 hours, and centrifuged at 3500 rpm for 15 minutes at 4° C. to precipitate the protein.

For another series, the target named is CYP2C19 (Homo sapiens (Human), UniProt P33261). The description is as above. Type of series: in vitro ADME. The settings on record: recombinant Bactosomes, 10 minutes. The method, then:
as §1, §2, §3, §4

For a further series, the target named is CYP2C9 (Homo sapiens (Human), UniProt P11712). Described as above. The settings on record: recombinant Bactosomes, 10 minutes. Type of series: in vitro ADME. Here is the method: as §1, §2, §3, §4
Another series has as its target CYP2D6 (Homo sapiens (Human), UniProt P10635). Described as above. Type of series: in vitro ADME. The settings on record: recombinant Bactosomes, 10 minutes. Here is the method: as §1, §2, §3, §4
Another series concerns the target CYP3A4 (Homo sapiens (Human), UniProt P08684). The description is as above. Type of series: in vitro ADME. The settings on record: recombinant Bactosomes, 10 minutes. The method, then:
as §1, §2, §3, §4

The target in another series is hERG (Homo sapiens (Human), UniProt Q12809). The experiment in a line: hERG Ion Channel binding assay (3H astemizole displacement). Particulars: human, membranes of HEK293 cells stably expressing hERG, pH 7.4, probe 3H astemizole (1.5 nM); 30 μM; displacement of 3H astemizole, hERG-HEK293 membranes. The method in brief: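 Membranes from stably transfected hERG-HEK293 cells incubated with 1.5 nM ³H-astemizole ± test compound in HEPES buffer pH 7.4 (0.1% BSA, 5 mM KCl, 130 mM NaCl) at 25° C for 60 min. Bound ligand measured by filtration and scintillation counting; reported as % displacement (0% none, 100% complete).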

The mark [2] stands for this setting: pH 6.5, 16 hours, room temperature.

CYP2C9, sequence (P11712 whole entry): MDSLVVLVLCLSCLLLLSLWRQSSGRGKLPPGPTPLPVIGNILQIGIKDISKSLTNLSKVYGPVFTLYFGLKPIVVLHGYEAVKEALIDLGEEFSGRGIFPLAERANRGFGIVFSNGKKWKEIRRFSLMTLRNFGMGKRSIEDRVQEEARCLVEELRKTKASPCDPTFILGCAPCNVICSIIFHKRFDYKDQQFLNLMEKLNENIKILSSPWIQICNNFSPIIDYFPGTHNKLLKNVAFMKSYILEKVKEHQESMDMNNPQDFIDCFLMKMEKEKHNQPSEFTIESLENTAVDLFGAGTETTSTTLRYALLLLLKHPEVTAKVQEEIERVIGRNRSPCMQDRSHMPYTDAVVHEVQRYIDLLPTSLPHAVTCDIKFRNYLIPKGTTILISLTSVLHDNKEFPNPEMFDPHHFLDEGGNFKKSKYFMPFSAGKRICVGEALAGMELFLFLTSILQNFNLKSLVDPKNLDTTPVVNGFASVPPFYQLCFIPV
CYP2D6, sequence (P10635 whole entry): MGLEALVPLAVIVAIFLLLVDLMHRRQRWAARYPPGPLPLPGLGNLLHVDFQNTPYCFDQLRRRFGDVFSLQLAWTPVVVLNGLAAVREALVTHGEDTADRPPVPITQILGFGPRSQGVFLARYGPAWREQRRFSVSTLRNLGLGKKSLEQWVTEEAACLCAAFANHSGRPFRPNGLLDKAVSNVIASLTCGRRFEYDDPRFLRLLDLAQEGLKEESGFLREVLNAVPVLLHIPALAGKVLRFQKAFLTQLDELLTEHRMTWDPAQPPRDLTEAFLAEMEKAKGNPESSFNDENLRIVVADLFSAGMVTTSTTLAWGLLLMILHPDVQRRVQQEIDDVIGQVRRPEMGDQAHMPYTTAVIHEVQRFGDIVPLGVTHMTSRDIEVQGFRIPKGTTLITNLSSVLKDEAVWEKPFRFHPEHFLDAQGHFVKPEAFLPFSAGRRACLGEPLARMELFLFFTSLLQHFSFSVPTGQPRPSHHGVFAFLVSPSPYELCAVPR
hERG, sequence (Q12809 whole entry): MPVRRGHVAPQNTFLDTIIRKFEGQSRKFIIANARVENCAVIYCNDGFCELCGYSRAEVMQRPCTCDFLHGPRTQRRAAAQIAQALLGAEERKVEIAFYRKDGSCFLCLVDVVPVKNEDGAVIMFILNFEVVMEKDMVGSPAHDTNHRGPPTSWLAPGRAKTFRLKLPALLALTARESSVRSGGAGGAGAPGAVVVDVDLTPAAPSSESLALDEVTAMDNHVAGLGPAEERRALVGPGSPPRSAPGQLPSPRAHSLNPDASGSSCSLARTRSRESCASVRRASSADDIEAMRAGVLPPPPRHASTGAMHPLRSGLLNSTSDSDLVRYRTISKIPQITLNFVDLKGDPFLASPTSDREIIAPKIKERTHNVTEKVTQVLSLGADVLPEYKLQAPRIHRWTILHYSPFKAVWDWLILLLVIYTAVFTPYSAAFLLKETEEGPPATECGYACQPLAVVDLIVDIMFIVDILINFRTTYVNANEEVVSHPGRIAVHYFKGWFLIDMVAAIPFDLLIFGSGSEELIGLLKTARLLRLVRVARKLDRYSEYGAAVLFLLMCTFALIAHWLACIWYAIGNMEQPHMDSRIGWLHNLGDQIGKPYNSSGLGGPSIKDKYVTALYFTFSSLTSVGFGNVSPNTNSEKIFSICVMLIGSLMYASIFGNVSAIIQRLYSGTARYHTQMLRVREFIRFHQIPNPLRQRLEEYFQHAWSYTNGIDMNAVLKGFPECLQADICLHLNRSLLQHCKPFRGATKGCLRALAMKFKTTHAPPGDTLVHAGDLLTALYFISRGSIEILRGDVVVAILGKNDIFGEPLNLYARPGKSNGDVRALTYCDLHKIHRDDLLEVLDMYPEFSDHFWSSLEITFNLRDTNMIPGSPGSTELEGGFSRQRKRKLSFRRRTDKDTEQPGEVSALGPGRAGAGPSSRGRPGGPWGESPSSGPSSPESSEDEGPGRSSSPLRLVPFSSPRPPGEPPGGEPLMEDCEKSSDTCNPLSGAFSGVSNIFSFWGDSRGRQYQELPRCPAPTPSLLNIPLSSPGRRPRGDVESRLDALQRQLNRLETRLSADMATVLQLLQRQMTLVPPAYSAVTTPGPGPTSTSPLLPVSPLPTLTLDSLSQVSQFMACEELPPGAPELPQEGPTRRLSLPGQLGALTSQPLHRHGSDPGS
CYP2C19, sequence (P33261 whole entry): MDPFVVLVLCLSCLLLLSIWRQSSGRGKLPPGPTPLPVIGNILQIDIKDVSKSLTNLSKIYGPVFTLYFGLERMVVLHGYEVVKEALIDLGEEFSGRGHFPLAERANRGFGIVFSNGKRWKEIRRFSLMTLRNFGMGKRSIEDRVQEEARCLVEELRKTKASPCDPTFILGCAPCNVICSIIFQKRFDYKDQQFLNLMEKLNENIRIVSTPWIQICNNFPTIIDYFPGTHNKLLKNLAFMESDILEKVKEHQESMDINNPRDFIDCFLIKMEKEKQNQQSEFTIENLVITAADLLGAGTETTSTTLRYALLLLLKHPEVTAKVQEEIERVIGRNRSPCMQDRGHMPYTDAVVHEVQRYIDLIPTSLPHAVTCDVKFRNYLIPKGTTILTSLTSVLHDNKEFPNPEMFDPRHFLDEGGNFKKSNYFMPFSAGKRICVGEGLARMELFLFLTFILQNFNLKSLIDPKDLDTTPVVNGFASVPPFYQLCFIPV
CYP1A2, sequence (P05177 whole entry, canonical isoform): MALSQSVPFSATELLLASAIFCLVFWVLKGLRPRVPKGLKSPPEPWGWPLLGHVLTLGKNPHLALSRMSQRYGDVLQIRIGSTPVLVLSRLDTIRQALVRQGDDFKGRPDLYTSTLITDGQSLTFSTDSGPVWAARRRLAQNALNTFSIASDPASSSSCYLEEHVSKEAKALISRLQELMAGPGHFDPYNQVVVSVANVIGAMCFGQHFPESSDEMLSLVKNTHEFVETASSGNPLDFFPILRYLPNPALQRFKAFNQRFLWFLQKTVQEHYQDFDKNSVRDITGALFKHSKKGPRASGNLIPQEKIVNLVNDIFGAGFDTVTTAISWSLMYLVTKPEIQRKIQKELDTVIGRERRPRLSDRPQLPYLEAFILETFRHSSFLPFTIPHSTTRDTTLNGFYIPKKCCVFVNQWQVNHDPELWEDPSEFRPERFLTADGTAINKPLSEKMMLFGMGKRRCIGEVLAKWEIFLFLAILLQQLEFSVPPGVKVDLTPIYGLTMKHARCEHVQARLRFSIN
CYP3A4, sequence (P08684 whole entry): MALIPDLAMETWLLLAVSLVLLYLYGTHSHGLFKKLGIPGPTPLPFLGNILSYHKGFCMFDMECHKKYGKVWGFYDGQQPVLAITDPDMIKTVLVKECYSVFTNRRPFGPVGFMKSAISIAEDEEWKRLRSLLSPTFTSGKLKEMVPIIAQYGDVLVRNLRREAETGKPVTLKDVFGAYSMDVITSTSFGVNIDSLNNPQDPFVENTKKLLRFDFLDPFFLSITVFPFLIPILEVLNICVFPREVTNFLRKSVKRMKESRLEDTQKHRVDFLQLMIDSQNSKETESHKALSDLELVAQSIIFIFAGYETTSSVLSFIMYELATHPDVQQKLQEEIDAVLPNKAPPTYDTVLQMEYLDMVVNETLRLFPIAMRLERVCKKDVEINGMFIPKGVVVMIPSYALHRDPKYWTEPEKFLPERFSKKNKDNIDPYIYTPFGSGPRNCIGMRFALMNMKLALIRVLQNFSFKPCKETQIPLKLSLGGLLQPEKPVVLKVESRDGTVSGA

In the case of `CC1(O)CCC(NS(=O)(=O)c2ccc(-c3ccc(F)cc3F)cc2)CC1` (stereo not shown) [ABD899, reference compound], the results for the Solubility in series [1] (setting [2]) and in series [1] (pH 6.8) were 0.06 ^(3) mg/mL and 0.13 mg/mL (≈ 341 µM), respectively. The IC50 is > 25 µM on CYP1A2; 7.3 µM at CYP2C19; 3.9 µM on CYP2C9; 45.3 µM at CYP2D6; 21.6 µM on CYP3A4.

Take `CC(=O)N1CCC(CS(=O)(=O)c2ccc(-c3ccc(F)cc3F)cc2)CC1` [NASMP-01, 1-(4-(((2′,4′-Difluoro-[1,1′-biphenyl]-4-yl)sulfonyl)methyl)piperidin-1-yl)ethan-1-one]: the solubility at 16 h in series [1] (setting [2]) stood at 75 µg/mL (≈ 191 µM). Moreover, the inhibition at 60 min, 30 µM at hERG was 14%. Besides, the IC50 at CYP1A2 (human, 10 min, pH 7.4) was > 50 µM; at CYP2C19, > 50 µM; on CYP2C9, > 50 µM; at CYP2D6, > 50 µM; on CYP3A4, > 50 µM.

For `CC(=O)N1CCC(CS(=O)(=O)c2ccc(-c3ccc(C#N)cc3Cl)cc2)CC1` [NASMP-05, 4′-(((1-Acetylpiperidin-4-yl)methyl)sulfonyl)-2-chloro-[1,1′-biphenyl]-4-carbonitrile], the “solubility (in words)” value in series [1] was “particularly good solubility”. This compound also yielded a solubility at 16 h in series [1] (setting [2]) of 62 µg/mL (≈ 149 µM). The inhibition at 60 min, 30 µM on hERG was found to be 23%. Moreover, the IC50 on CYP1A2 (human, 10 min, pH 7.4) was > 50 µM; on CYP2C19 it was > 50 µM; at CYP2C9 it was > 50 µM; at CYP2D6, > 50 µM; on CYP3A4, > 50 µM.

Regarding `CC(=O)N1CCC(CS(=O)(=O)c2ccc(-c3ccc(Cl)cc3C#N)cc2)CC1` [NASMP-06, 4′-(((1-Acetylpiperidin-4-yl)methyl)sulfonyl)-4-chloro-[1,1′-biphenyl]-2-carbonitrile], the “solubility (in words)” value in series [1] was “particularly good solubility”. In series [1] (setting [2]), this compound displayed a solubility at 16 h of 83 µg/mL (≈ 199 µM). For the same compound, on hERG, the inhibition at 60 min, 30 µM turned out to be 35%. The IC50 at CYP1A2 (human, 10 min, pH 7.4) was > 50 µM; at CYP2C19 it was > 50 µM; on CYP2C9 it was 42.7 µM; at CYP2D6, > 50 µM; at CYP3A4, > 50 µM.

Turning to `CC(=O)N1CCC(CS(=O)(=O)c2ccc(-c3ccc(C(F)(F)F)cc3F)cc2)CC1` [NASMP-07, 1-(4-(((2′-Fluoro-4′-(trifluoromethyl)-[1,1′-biphenyl]-4-yl)sulfonyl)methyl)piperidin-1-yl)ethan-1-one], the “solubility (in words)” value in series [1] is on record as “particularly good solubility”. This compound displayed a solubility at 16 h in series [1] (setting [2]) of 89 µg/mL (≈ 201 µM). At hERG, this compound had an inhibition at 60 min, 30 µM of 79%. Besides, the IC50 at CYP1A2 (human, 10 min, pH 7.4) is > 50 µM; on CYP2C19, 36.4 µM; on CYP2C9, 19.6 µM; on CYP2D6, > 50 µM; at CYP3A4, > 50 µM.

`CC(=O)N1CCC(CS(=O)(=O)c2ccc(-c3c(F)cccc3F)cc2)CC1` [NASMP-09, 1-(4-(((2′,6′-Difluoro-[1,1′-biphenyl]-4-yl)sulfonyl)methyl)piperidin-1-yl)ethan-1-one]: the solubility at 16 h in series [1] (setting [2]) was 28 µg/mL (≈ 71.2 µM). For the same compound, the inhibition at 60 min, 30 µM on hERG amounted to 7%. Besides, the IC50 at CYP1A2 (human, 10 min, pH 7.4) is > 50 µM; at CYP2C19, 17.8 µM; on CYP2C9, > 50 µM; at CYP2D6, > 50 µM; on CYP3A4 it was 44.5 µM.

As for `CC(=O)N1CCC(CS(=O)(=O)c2ccc(-c3ccc(F)cc3F)cc2C(F)(F)F)CC1` [NASMP-12, 1-(4-(((2′,4′-Difluoro-3-(trifluoromethyl)-[1,1′-biphenyl]-4-yl)sulfonyl)methyl)piperidin-1-yl)ethan-1-one], the “solubility (in words)” value in series [1] is recorded as “particularly good solubility”. Besides, the solubility at 16 h in series [1] (setting [2]) was 68 µg/mL (≈ 147 µM). This compound gave an inhibition at 60 min, 30 µM at hERG of 35%. Moreover, the half-inhibitory concentration (IC50) was > 50 µM at CYP1A2 (human, 10 min, pH 7.4); > 50 µM at CYP2C19; 15.4 µM on CYP2C9; 45.4 µM at CYP2D6; > 50 µM on CYP3A4.

For the compound `CCC(=O)N1CCC(CS(=O)(=O)c2ccc(-c3ccc(F)cc3F)cc2)CC1` [NASMP-15, 1-(4-(((2′,4′-Difluoro-[1,1′-biphenyl]-4-yl)sulfonyl)methyl)piperidin-1-yl)propan-1-one], the “solubility (in words)” value in series [1] was “particularly good solubility”. The same compound came in with a solubility at 16 h in series [1] (setting [2]) of 73 µg/mL (≈ 179 µM). On hERG, this compound yielded an inhibition at 60 min, 30 µM of 45%. Also, the IC50 was > 50 µM at CYP1A2 (human, 10 min, pH 7.4); > 50 µM on CYP2C19; 21.5 µM at CYP2C9; > 50 µM at CYP2D6; > 50 µM at CYP3A4.

The term Solubility denotes the dissolved amount per volume that the medium holds. One may read the IC50 as the concentration needed to halve the response being measured. As usually defined, the solubility is the concentration that dissolves in the medium under given conditions. A lower solubility goes with little dissolved substance. The inhibition is the change of the read-out against control, counted positive when it falls. A lower inhibition goes with a weak effect.
